Results from the NIST ThermoML archive (doi:10.1021/je200721d).
± gives the expanded uncertainty stated by the source.

Test: xn = mol fraction of the nth substance listed
Conditions: Liquid, Vibrating tube method

CCCCCCCC [octane] + CCCCCC
Conditions	mass density [kg/m3]
362.88 K, 4000 kPa, x2 = 0.1654	644.35 ± 0.29
362.88 K, 4000 kPa, x2 = 0.2199	642.17 ± 0.3
362.88 K, 5000 kPa, x2 = 0.1654	645.69 ± 0.3
362.88 K, 5000 kPa, x2 = 0.2199	643.54 ± 0.3
362.88 K, 6000 kPa, x2 = 0.1654	647.04 ± 0.31
362.88 K, 6000 kPa, x2 = 0.2199	644.88 ± 0.31
362.88 K, 7000 kPa, x2 = 0.1654	648.35 ± 0.32
362.88 K, 7000 kPa, x2 = 0.2199	646.21 ± 0.32
362.88 K, 8000 kPa, x2 = 0.1654	649.64 ± 0.33
362.88 K, 8000 kPa, x2 = 0.2199	647.53 ± 0.33
362.88 K, 9000 kPa, x2 = 0.1654	650.92 ± 0.34
362.88 K, 9000 kPa, x2 = 0.2199	648.82 ± 0.34
362.88 K, 10000 kPa, x2 = 0.1654	652.16 ± 0.35
362.88 K, 10000 kPa, x2 = 0.2199	650.09 ± 0.35
362.88 K, 11000 kPa, x2 = 0.1654	653.43 ± 0.36
362.88 K, 11000 kPa, x2 = 0.2199	651.35 ± 0.36
362.88 K, 12000 kPa, x2 = 0.1654	654.65 ± 0.37
362.88 K, 12000 kPa, x2 = 0.2199	652.59 ± 0.37
362.88 K, 13000 kPa, x2 = 0.1654	655.84 ± 0.38
362.88 K, 13000 kPa, x2 = 0.2199	653.81 ± 0.38
362.88 K, 14000 kPa, x2 = 0.1654	657.01 ± 0.39
362.88 K, 14000 kPa, x2 = 0.2199	654.99 ± 0.39
362.88 K, 15000 kPa, x2 = 0.1654	658.17 ± 0.4
362.88 K, 15000 kPa, x2 = 0.2199	656.16 ± 0.4
362.88 K, 16000 kPa, x2 = 0.1654	659.3 ± 0.4
362.88 K, 16000 kPa, x2 = 0.2199	657.29 ± 0.41
362.88 K, 17000 kPa, x2 = 0.1654	660.41 ± 0.41
362.88 K, 17000 kPa, x2 = 0.2199	658.42 ± 0.42
362.88 K, 18000 kPa, x2 = 0.1654	661.5 ± 0.42
362.88 K, 18000 kPa, x2 = 0.2199	659.52 ± 0.43
362.88 K, 19000 kPa, x2 = 0.1654	662.58 ± 0.43
362.88 K, 19000 kPa, x2 = 0.2199	660.6 ± 0.44
362.88 K, 20000 kPa, x2 = 0.1654	663.6 ± 0.44
362.88 K, 20000 kPa, x2 = 0.2199	661.65 ± 0.45
362.88 K, 21000 kPa, x2 = 0.1654	664.63 ± 0.45
362.88 K, 21000 kPa, x2 = 0.2199	662.67 ± 0.46
362.88 K, 22000 kPa, x2 = 0.1654	665.63 ± 0.46
362.88 K, 22000 kPa, x2 = 0.2199	663.67 ± 0.46
362.88 K, 23000 kPa, x2 = 0.1654	666.61 ± 0.47
362.88 K, 23000 kPa, x2 = 0.2199	664.66 ± 0.47
362.88 K, 24000 kPa, x2 = 0.1654	667.57 ± 0.48
362.88 K, 24000 kPa, x2 = 0.2199	665.61 ± 0.48
362.88 K, 25000 kPa, x2 = 0.1654	668.52 ± 0.49
362.88 K, 25000 kPa, x2 = 0.2199	666.56 ± 0.49
362.89 K, 1000 kPa, x2 = 0.9308	599.76 ± 0.29
362.89 K, 2000 kPa, x2 = 0.9308	601.55 ± 0.3
362.89 K, 3000 kPa, x2 = 0.9308	603.31 ± 0.31
362.89 K, 4000 kPa, x2 = 0.9308	605.04 ± 0.32
362.89 K, 5000 kPa, x2 = 0.9308	606.72 ± 0.33
362.89 K, 6000 kPa, x2 = 0.9308	608.38 ± 0.34
362.89 K, 7000 kPa, x2 = 0.9308	610.01 ± 0.35
362.89 K, 8000 kPa, x2 = 0.9308	611.58 ± 0.36
362.89 K, 9000 kPa, x2 = 0.9308	613.16 ± 0.37
362.89 K, 10000 kPa, x2 = 0.9308	614.68 ± 0.38
362.89 K, 11000 kPa, x2 = 0.9308	616.17 ± 0.39
362.89 K, 12000 kPa, x2 = 0.9308	617.64 ± 0.4
362.89 K, 13000 kPa, x2 = 0.9308	619.07 ± 0.41
362.89 K, 14000 kPa, x2 = 0.9308	620.48 ± 0.42
362.89 K, 15000 kPa, x2 = 0.9308	621.85 ± 0.43
362.89 K, 16000 kPa, x2 = 0.9308	623.2 ± 0.44
362.89 K, 17000 kPa, x2 = 0.9308	624.51 ± 0.45
362.89 K, 18000 kPa, x2 = 0.9308	625.8 ± 0.46
362.89 K, 19000 kPa, x2 = 0.9308	627.06 ± 0.47
362.89 K, 20000 kPa, x2 = 0.9308	628.28 ± 0.48
362.89 K, 21000 kPa, x2 = 0.9308	629.48 ± 0.5
362.89 K, 22000 kPa, x2 = 0.9308	630.64 ± 0.51
362.89 K, 23000 kPa, x2 = 0.9308	631.79 ± 0.52
362.89 K, 24000 kPa, x2 = 0.9308	632.9 ± 0.53
362.89 K, 25000 kPa, x2 = 0.9308	634.01 ± 0.55
362.9 K, 1000 kPa, x2 = 0.7995	608.76 ± 0.28
362.9 K, 2000 kPa, x2 = 0.7995	610.47 ± 0.29
362.9 K, 3000 kPa, x2 = 0.7995	612.13 ± 0.3
362.9 K, 4000 kPa, x2 = 0.7995	613.77 ± 0.31
362.9 K, 5000 kPa, x2 = 0.7995	615.41 ± 0.32
362.9 K, 6000 kPa, x2 = 0.7995	616.94 ± 0.33
362.9 K, 7000 kPa, x2 = 0.7995	618.5 ± 0.34
362.9 K, 8000 kPa, x2 = 0.7995	620.01 ± 0.35
362.9 K, 9000 kPa, x2 = 0.7995	621.5 ± 0.36
362.9 K, 10000 kPa, x2 = 0.7995	622.96 ± 0.37
362.9 K, 11000 kPa, x2 = 0.7995	624.39 ± 0.38
362.9 K, 12000 kPa, x2 = 0.7995	625.81 ± 0.39
362.9 K, 13000 kPa, x2 = 0.7995	627.18 ± 0.4
362.9 K, 14000 kPa, x2 = 0.7995	628.53 ± 0.41
362.9 K, 15000 kPa, x2 = 0.7995	629.85 ± 0.42
362.9 K, 16000 kPa, x2 = 0.7995	631.14 ± 0.43
362.9 K, 17000 kPa, x2 = 0.7995	632.42 ± 0.44
362.9 K, 18000 kPa, x2 = 0.7995	633.67 ± 0.45
362.9 K, 19000 kPa, x2 = 0.7995	634.88 ± 0.46
362.9 K, 20000 kPa, x2 = 0.7995	636.08 ± 0.48
362.9 K, 21000 kPa, x2 = 0.7995	637.22 ± 0.49
362.9 K, 22000 kPa, x2 = 0.7995	638.34 ± 0.5
362.9 K, 23000 kPa, x2 = 0.7995	639.44 ± 0.51
362.9 K, 24000 kPa, x2 = 0.7995	640.51 ± 0.52
362.9 K, 25000 kPa, x2 = 0.7995	641.57 ± 0.54
